Here are results for 29 molecules from ChEMBL document CHEMBL3102738, “Synthesis and biological evaluation of nitric oxide-donating analogues of sulindac for prostate cancer treatment” (Bioorg Med Chem, 2014).

What all share (type): functional
Assay [1] relates to PC-3. Put plainly: Cytotoxicity against human PC3 cells assessed as cell viability at 50 uM after 72 hrs by crystal violet method (reference value: 95.69 +/- 7.66%). The conditions noted are these: PC-3, 72 h, read-out: Activity.
For assay [2], the system named is PC-3. In words: Cytotoxicity against human PC3 cells assessed as cell viability at 50 uM after 48 hrs by crystal violet method (reference value: 100.87 +/- 4.87%). The settings on record: PC-3, 48 h, read-out: Activity.
Assay [3] relates to PC-3. Put plainly: Cytotoxicity against human PC3 cells assessed as cell viability at 50 uM after 24 hrs by crystal violet method (reference value: 99.09 +/- 9.87%). The conditions noted are these: PC-3, 24 h, read-out: Activity.

`CSc1ccc(/C=C2/C(C)=C(CC(=O)OCCCCO)c3cc(F)ccc32)cc1`: the results for the viability at 50 µM in the assay with PC-3 [1], with PC-3 [2] and in the assay on PC-3 [3] were 84%, 80.5% and 98.2%, respectively.
The matching figures for `CC1=C(CC(=O)Oc2cccc(Oc3no[n+]([O-])c3S(=O)(=O)c3ccccc3)c2)c2cc(F)ccc2/C1=C\c1ccc(S(C)(=O)=O)cc1`: 0%, 0% and 0%.
As for `CC1=C(CC(=O)OCCCCCCO[N+](=O)[O-])c2cc(F)ccc2/C1=C\c1ccc([S+](C)[O-])cc1` (configuration not stated), the viability at 50 µM in the assay on PC-3 [1] stood at 88.1%; with PC-3 [2], 72.7%; in the assay with PC-3 [3], 105%.
Turning to `CC1=C(CC(=O)OCC#CCOc2no[n+]([O-])c2S(=O)(=O)c2ccccc2)c2cc(F)ccc2/C1=C\c1ccc(S(C)(=O)=O)cc1`, the viability at 50 µM was 27.3% in the assay with PC-3 [1], 38% with PC-3 [2] and 36.5% in the assay on PC-3 [3].
Take `CSc1ccc(/C=C2/C(C)=C(CC(=O)OCC#CCOc3no[n+]([O-])c3S(=O)(=O)c3ccccc3)c3cc(F)ccc32)cc1`: the viability at 50 µM was 14.9% in the assay with PC-3 [1], 20.8% in the assay on PC-3 [2] and 25.4% with PC-3 [3].
The matching figures for `CSc1ccc(/C=C2/C(C)=C(CC(=O)OC/C=C\COc3no[n+]([O-])c3S(=O)(=O)c3ccccc3)c3cc(F)ccc32)cc1`: 20.6%, 31.4% and 30.6%.
For `CSc1ccc(/C=C2/C(C)=C(CC(=O)OC(CO[N+](=O)[O-])CO[N+](=O)[O-])c3cc(F)ccc32)cc1`, the viability at 50 µM turned out to be 93.5% in the assay with PC-3 [1], 92.3% in the assay with PC-3 [2] and 91.2% in the assay on PC-3 [3].
The like results for `CC1=C(CC(=O)O)c2cc(F)ccc2/C1=C\c1ccc(S(C)(=O)=O)cc1` [EXISULIND] were, in that order, 83.5%, 91% and 87.8%.
`CC1=C(CC(=O)OCC#CCOc2no[n+]([O-])c2S(=O)(=O)c2ccccc2)c2cc(F)ccc2/C1=C\c1ccc([S+](C)[O-])cc1` (configuration not stated): the viability at 50 µM in the assay with PC-3 [1], in the assay on PC-3 [2] and in the assay with PC-3 [3] was 0% in each case.
As for `CC1=C(CC(=O)OCCCOc2no[n+]([O-])c2S(=O)(=O)c2ccccc2)c2cc(F)ccc2/C1=C\c1ccc([S+](C)[O-])cc1` (configuration not stated), the viability at 50 µM with PC-3 [1], in the assay on PC-3 [2] and in the assay with PC-3 [3] was 0% in each case.
Turning to `CSc1ccc(/C=C2/C(C)=C(CC(=O)O)c3cc(F)ccc32)cc1` [SULINDAC SULFIDE], the viability at 50 µM with PC-3 [1] amounted to 105%; with PC-3 [2], 93.7%; in the assay with PC-3 [3], 99.2%.
The matching figures for `CC1=C(CC(=O)OCCCCO[N+](=O)[O-])c2cc(F)ccc2/C1=C\c1ccc(S(C)(=O)=O)cc1`: 54.7%, 52.9% and 68.7%.
The matching figures for `CC1=C(CC(=O)OCc2cccc(Oc3no[n+]([O-])c3S(=O)(=O)c3ccccc3)c2)c2cc(F)ccc2/C1=C\c1ccc([S+](C)[O-])cc1` (configuration not stated): 51.9%, 56.2% and 71.8%.
The like results for `CSc1ccc(/C=C2/C(C)=C(CC(=O)OCc3cccc(Oc4no[n+]([O-])c4S(=O)(=O)c4ccccc4)c3)c3cc(F)ccc32)cc1` were, in that order, 82.7%, 79.7% and 102%.
With `CSc1ccc(/C=C2/C(C)=C(CC(=O)OCCCCO[N+](=O)[O-])c3cc(F)ccc32)cc1`, the viability at 50 µM in the assay with PC-3 [1] amounted to 17.1%; with PC-3 [2], 28.4%; with PC-3 [3] it was 49.4%.
The matching figures for `CC1=C(CC(=O)OCCCCOc2no[n+]([O-])c2S(=O)(=O)c2ccccc2)c2cc(F)ccc2/C1=C\c1ccc([S+](C)[O-])cc1` (configuration not stated): 16.5%, 21.8% and 32.3%.
The like results for `CC1=C(CC(=O)OCc2cccc(Oc3no[n+]([O-])c3S(=O)(=O)c3ccccc3)c2)c2cc(F)ccc2/C1=C\c1ccc(S(C)(=O)=O)cc1` were, in that order, 63.6%, 67.7% and 88.3%.
The like results for `CC1=C(CC(=O)OCCO[N+](=O)[O-])c2cc(F)ccc2/C1=C\c1ccc(S(C)(=O)=O)cc1` were, in that order, 84.4%, 96.2% and 84.4%.
`CSc1ccc(/C=C2/C(C)=C(CC(=O)OCCCCCCO[N+](=O)[O-])c3cc(F)ccc32)cc1`: the viability at 50 µM in the assay on PC-3 [1] amounted to 104%; with PC-3 [2], 85.1%; with PC-3 [3], 92.4%.
The matching figures for `CSc1ccc(/C=C2/C(C)=C(CC(=O)OCCO[N+](=O)[O-])c3cc(F)ccc32)cc1`: 91.2%, 119% and 95.6%.
The matching figures for `CSc1ccc(/C=C2/C(C)=C(CC(=O)/N=c3\c[n+](-c4ccccc4)[n-]o3)c3cc(F)ccc32)cc1`: 77%, 90.8% and 89%.
The like results for `CC1=C(CC(=O)OCC(CO[N+](=O)[O-])(CO[N+](=O)[O-])CO[N+](=O)[O-])c2cc(F)ccc2/C1=C\c1ccc([S+](C)[O-])cc1` (configuration not stated) were, in that order, 89.6%, 79.8% and 86%.
On to `CC1=C(CC(=O)OCCCCCCOc2no[n+]([O-])c2S(=O)(=O)c2ccccc2)c2cc(F)ccc2/C1=C\c1ccc(S(C)(=O)=O)cc1`, for which the viability at 50 µM with PC-3 [1] was determined as 15.4%; with PC-3 [2], 24.2%; in the assay with PC-3 [3], 42.4%.
The matching figures for `CC1=C(CC(=O)OCCCCO[N+](=O)[O-])c2cc(F)ccc2/C1=C\c1ccc([S+](C)[O-])cc1` (configuration not stated): 24.5%, 35.5% and 58.8%.
The matching figures for `CC1=C(CC(=O)OC(CO[N+](=O)[O-])CO[N+](=O)[O-])c2cc(F)ccc2/C1=C\c1ccc([S+](C)[O-])cc1` (configuration not stated): 30.2%, 44.9% and 46.5%.
For `CC1=C(CC(=O)OC/C=C\COc2no[n+]([O-])c2S(=O)(=O)c2ccccc2)c2cc(F)ccc2/C1=C\c1ccc(S(C)(=O)=O)cc1`, the viability at 50 µM in the assay with PC-3 [1], with PC-3 [2] and in the assay on PC-3 [3] was 0% in each case.
On to `CC1=C(CC(=O)OCCOCCOc2no[n+]([O-])c2S(=O)(=O)c2ccccc2)c2cc(F)ccc2/C1=C\c1ccc(S(C)(=O)=O)cc1`, for which the viability at 50 µM with PC-3 [1], in the assay on PC-3 [2] and with PC-3 [3] was 0% throughout.
On to `CC1=C(CC(=O)OCCCCOc2no[n+]([O-])c2S(=O)(=O)c2ccccc2)c2cc(F)ccc2/C1=C\c1ccc(S(C)(=O)=O)cc1`, for which the viability at 50 µM with PC-3 [1] is 38.8%; in the assay on PC-3 [2], 49.9%; in the assay with PC-3 [3], 67.9%.
Take `CC1=C(CC(=O)OC(CO[N+](=O)[O-])CO[N+](=O)[O-])c2cc(F)ccc2/C1=C\c1ccc(S(C)(=O)=O)cc1`: the viability at 50 µM in the assay with PC-3 [1] worked out at 89.4%; with PC-3 [2] it was 89%; in the assay on PC-3 [3], 88%.
